Results as given in PubChem BioAssay AID1645871.

settings: pampa; pH 5.0; 30.0 min; 50.0 µM

Compound	Papp [×10⁻⁶ cm/s]
O=C(Nc1ccccc1-c1cn2c(CN3CCNCC3)csc2n1)c1cnc2ccccc2n1	342
COc1ccccc1CNS(=O)(=O)c1ccc(-c2cnc(C3CC3)o2)cc1	> 1000
CCOC(=O)N1CCN(Cc2nc3cc(NC(=O)c4ccc(OC)cc4)ccc3n2C(C)C)CC1	808
CC(=O)Nc1ccc(NC(=O)C(NS(=O)(=O)c2ccc(Br)s2)c2ccccc2)cc1 (configuration not stated)	16.2
Cc1nn2c(c1-c1ccccc1OCc1ccccc1)N(C(=O)Cc1ccc3c(c1)OCO3)CCC2	> 1000
CCc1ccc(-n2nc(C)c3c2NC(=O)CSC3c2ccccc2C)cc1 (configuration not stated)	707
COc1ccc(C2c3c(oc4ccc(C)cc4c3=O)C(=O)N2CCCN2CCOCC2)cc1OC (configuration not stated)	19.2
CN1Cc2c(cc(N3CCOCC3)nc2-c2ccccc2OC(F)(F)F)C1=O	> 1000
CCCN1C(CC(C)C)=NS(=O)(=O)c2cc(NC(=O)c3cccs3)ccc21	275
Cc1ccc2oc3c(c(=O)c2c1)C(c1cccc(O)c1)N(CCCN1CCOCC1)C3=O (configuration not stated)	2.62
Cc1nn2c(c1-c1ccccc1Oc1ccccc1)N(Cc1ccccc1O)CCC2	879
O=C(O)c1ccc(-c2c[nH]c3ncc(-c4ccccc4)cc23)cc1C1CCCC1	400
Cc1ccc(C(=O)N2CCc3sc(C(=O)NC(C)c4ccccc4)cc3C2)cc1 (configuration not stated)	425
CC(C)Oc1ccc(C(=O)Nc2ccc3c(c2)CCCN3C(=O)c2cccs2)cc1	800
CCOc1ccc(CNC(=O)CCCn2nc(C)c3c(C)n(-c4ccc(C)cc4)nc3c2=O)cc1	582
Cc1cccc(-c2noc([C@@H]3Cc4nc[nH]c4CN3C(=O)CC(C)(C)CC(=O)O)n2)c1	46.7
Cc1cc(NS(=O)(=O)c2ccc3c(c2)CCC(=O)N3)ccc1F	463
CNc1sc(-c2cccc3ccccc23)nc1C#N	268
CCN(CC)CCOc1ccc(Cc2ccccc2)cc1	236
Cn1ncnc1[C@H]1c2n[nH]c(=O)c3cc(F)cc(c23)N[C@@H]1c1ccc(F)cc1	46.2
CCN(CCCOc1ccc2c(Nc3cc(CC(=O)Nc4cccc(F)c4)[nH]n3)ncnc2c1)CCOP(=O)(O)O	3.64
COc1ccc2[nH]cc(CCNC(=O)c3cnn(-c4ccc(C)cc4)c3C3CCN(C(=O)OC(C)(C)C)CC3)c2c1	689
COc1cc(NC(=O)c2nc3ccccc3n(C)c2=O)cc(OC)c1OC	151
N#Cc1ccc(C(=O)Nc2ccc(Cl)c(-c3nc4cc(Cl)ccc4o3)c2)c(F)c1	679
O=C(c1ccc(-c2ncc3cnc(-c4ccccc4)cn23)cc1)N1CCS(=O)(=O)CC1	22.8
C[C@]12N[C@H](Cc3ccccc31)c1ccccc12	72.8

Compound	Papp [×10⁻⁶ cm/s]
COc1ccccc1C(=O)Nc1nnc(SCc2cc(=O)c3ccccc3[nH]2)s1	402
O=c1ncn2nc(Sc3ccc(F)cc3F)ccc2c1-c1c(Cl)cccc1Cl	793
CCc1ccccc1Nc1ncnc2c1cnn2-c1ccc(Cl)cc1	100
CN1CCN(c2ccc(Nc3nn4c(=O)c5ccccc5nc4s3)cc2)CC1	5.91
COc1ccc(-n2nc(C3CCCN(C(=O)c4ccc(C)cc4)C3)[nH]c2=O)cc1 (configuration not stated)	603
O=C1CN(C(=O)CCC(=O)N2CCc3c(nc4cc(-c5ccccc5)[nH]n4c3=O)C2)c2ccccc2N1	6.84
CCOC(=O)C1=C(CN(CC)Cc2ccccc2)NC(=O)NC1c1ccc(OC(C)C)cc1 (configuration not stated)	> 1000
Oc1ccc(CN2CC(CNc3ccccc3)C3(C2)CN(c2ccccc2)C3)cc1 (configuration not stated)	> 1000
COC(=O)c1ccc(NS(=O)(=O)c2c(C)nc3sccn3c2=O)cc1	413
COc1ccc(OC)c(CNc2ncnc3onc(C)c23)c1	250
COc1ccc(CCNC(=O)Cn2c(=O)c3cccn3c3ccc(F)cc32)cc1OC	317
CC(C)(N)C(=O)N[C@H](COCc1ccccc1)C(=O)N1CCC2(CC1)CN(S(C)(=O)=O)c1ccccc12	27.5
Cc1cc(C)nc(NC(=S)N2CCN(Cc3ccc(C(F)(F)F)cc3)CC2)c1	> 1000
c1ccc(CNc2nc(NCc3ccccc3)c3ccccc3n2)cc1	190
Cc1nc2nc(NC(=O)c3ccc(C(C)(C)C)cc3)[nH]n2c(=O)c1Cl	83.9
CC(C)(C)C(=O)N1CCN(c2nccc(Nc3ccccc3Cl)n2)CC1	895
Cc1cccc(N2CCN(c3nc4ccccc4c4nnc(C)n34)CC2)c1C	> 1000
O=C(NC1CCCc2c1[nH]c1ccccc21)c1ccccc1 (configuration not stated)	680
COc1ccc(C(=O)NC2CCCc3c2[nH]c2ccccc32)cc1OC (configuration not stated)	238
COc1cc2c(c(OC)c1OC)-c1ccc(OC)c(=O)cc1[C@@H](NC(C)=O)CC2	4.51
CN(C)CC[C@@H](c1ccc(Cl)cc1)c1ccccn1	82.5
Oc1ccccc1CN1CCNc2cc(Nc3ccccc3)ncc2C1	23.1
CCCCCn1cc2c(c1-c1ccc(Br)cc1)c(=O)n(C)c(=O)n2C	946
COc1cccc(C(=O)Nc2ccc3oc(-c4ccc5ccccc5c4)nc3c2)c1	756
CN1CCN(CCCN2c3ccccc3Sc3ccc(S(=O)(=O)N(C)C)cc32)CC1	730
CC(=O)N1CCc2c(sc3c2c(=O)n(-c2ccccc2Cl)c(=O)n3Cc2cccc(C)c2)C1	687

Compound	Papp [×10⁻⁶ cm/s]
COC(=O)c1cccc(NC(=O)c2cnc(-c3ccc(F)cc3)nc2-c2ccncc2)c1	671
Fc1cccc(CN2CCNc3cc(Nc4ccccc4)ncc3C2)c1	5.74
COc1cc2c(cc1Oc1cccc(N(C)C)c1)NC(=O)C21CCN(c2cnccn2)CC1	> 1000
CCOc1ccccc1C(=O)NC1CCN(c2cc(C)cc(C)c2)C1=O (configuration not stated)	> 1000
COc1ccccc1Nc1ccnc(N2CCN(C(=O)c3ccc(F)cc3)CC2)n1	853
CC(=O)NCCNC(=O)c1ccc(-c2ncc3cnc(-c4cccc(F)c4)cn23)cc1	7.62
O=C(O)c1cccc(-c2noc(-c3ccccc3F)n2)c1	892
Fc1ccccc1CNCc1ccc(-c2ccnc3[nH]ccc23)cc1	266
Cc1ccc(C(=O)Nc2ccc3oc(-c4cccnc4)nc3c2)cc1[N+](=O)[O-]	693
CCn1cc(C(=O)N2CCN(c3cccc(Cl)c3)CC2)c2cc(OC)c(OC)cc2c1=O	810
O=C(CSc1nc(-c2ccc(F)cc2)[nH]c1-c1ccc(F)cc1)Nc1ccc2c(c1)OCCO2	585
COc1ccc(-n2nc(C3CCCN(C(=O)C4CC4)C3)[nH]c2=O)cc1 (configuration not stated)	109
COc1ccc(-n2nc(C3CCCN(C(=O)c4ccccc4F)C3)[nH]c2=O)cc1 (configuration not stated)	341
CC(C)c1nc(CN(C)C(=O)N[C@H](C(=O)N[C@@H](Cc2ccccc2)C[C@H](O)[C@H](Cc2ccccc2)NC(=O)OCc2cncs2)C(C)C)cs1	844
C[C@H]1CN(C(=O)c2nn(C)c3ccccc23)C[C@@H]1c1nc(-c2cccnc2)no1	739
Cc1c(C)n(Cc2ccccc2)c2ccc(C(=O)OCCN(C)C)cc12	> 1000
COc1ccc2c(c1)CCc1c-2n[nH]c1C(=O)N1CCc2c(nc3cc(-c4ccccc4)[nH]n3c2=O)C1	15.8
Cc1ccc(-n2nc3c(=O)n(CCCC(=O)NCc4ccccc4F)nc(C)c3c2C)cc1	291
CCC(CC)c1cc([C@H]2CN3CC[C@H]2C[C@@H]3CNC(=O)COc2ccccc2)nc(-c2ccncc2)n1	374
Cc1nc(-c2ccco2)cc([C@H]2CN3CC[C@H]2C[C@@H]3CNC(=O)NC2CCCCC2)n1	4.96
COc1ccc(-c2nc3ccc(C4=NNC(=O)CC4C)cc3[nH]2)cc1 (configuration not stated)	232
CC1=Nc2cc(C(=O)NCCc3ccccc3)ccc2Sc2c(C)ccc(C)c21	466
O=C(O)Cc1ccc2oc(-c3ccc(NC(=O)/C=C/c4ccc(Br)cc4)c(F)c3)nc2c1	405
COc1ccc(C(=O)NC2CCCc3c2[nH]c2c(Cl)cccc32)cc1OC (configuration not stated)	483
COC(=O)Nc1nc2ccc(SC(C)C)cc2[nH]1	510
Cc1nn2c(c1-c1ccccc1-c1ccccc1)N(Cc1ccc(O)cc1)CCC2	118

Compound	Papp [×10⁻⁶ cm/s]
Cc1cccc(-c2noc([C@@H]3Cc4nc[nH]c4CN3)n2)c1	169
Cn1cnc(-c2nccc3c(=O)[nH]c(OCCCC(F)(F)F)nc23)c1	78.7
CCN(CCN(C)C)C(=O)C1CCN(S(=O)(=O)c2c(C)noc2/C=C/c2ccccc2F)CC1	565
COc1ccc(-n2c(C)c(C(C)=O)c3cc(OC(=O)COc4ccccc4)ccc32)cc1	> 1000
CC(C)(C)c1ccc(C(=O)Nc2ccc3c(c2)CCCN3C(=O)c2cccs2)cc1	884
Nc1ncc(S(=O)(=O)N2CCN(c3ccccc3)CC2)cn1	6.73
COc1ccc(-c2noc([C@@H]3Cc4nc[nH]c4CN3C(=O)NC3CCCCC3)n2)cc1	58.2
Cc1ccnc(NC(=O)C2CC(=O)N(c3n[nH]c4cc(Br)ccc34)C2)c1 (configuration not stated)	62.8
C#CCOc1ccc(-c2nnc(Nc3ccc(NC(C)=O)cc3)c3ccccc23)cc1	265
CCC(CC)C(=O)NC[C@@H]1C=C(C)[C@H](Cc2nc3c(C)cccc3[nH]2)C[C@H]1C(C)C	> 1000
COc1ccc2c(c1)CN(C(=O)CCN1CCC(Cc3ccccc3)CC1)CCS2	807
COCCNc1ncc(-c2cccc(O)c2)c2c1OCC2	77
O=C(Nc1ccccc1F)c1nc(S(=O)(=O)Cc2ccccc2F)ncc1Cl	505
CNC(=O)C1CCN(C(=O)c2ccc(-c3ncc4cnc(-c5ccccc5)cn34)cc2)CC1	30.1
CN(C)C(=O)c1nc(-c2ccc(Cl)cc2Cl)c2cnccn12	> 1000
CC(C)c1ccccc1-c1nc(NCc2ccc(-c3cccnc3)cc2)c2ccccc2n1	> 1000
COc1cccc(CNC(=O)CCCn2nc(C)c3c(C)n(-c4ccc(C)cc4)nc3c2=O)c1OC	446
CCOc1ccc(-c2cn3c(n2)sc2cc(C(=O)NCCCN(CC)CC)ccc23)cc1	114
COc1cc(NC(=O)Cn2c(=O)oc3cc(S(=O)(=O)N4CCCCCC4)ccc32)cc(OC)c1	372
CC(NCc1ccc2c(c1)nc(NC(=O)c1ccc(-c3cn[nH]c3)s1)n2CC(C)(C)O)C(C)(C)C (configuration not stated)	4.16
CCC(=O)NC(c1ccc(OC)cc1)c1cc(Cl)c2cccnc2c1O (configuration not stated)	5.75
O=C(c1ccc2c(c1)OCO2)N1CCC(Cc2nc(-c3cnccn3)no2)CC1	44
CC(C)c1ccccc1-c1nc2c(c(NCc3ccc(-c4cccnc4)cc3)n1)CNC2	98.7
COc1ccc(-n2nc(C3CCN([S+](=O)([O-])c4cccc(C(F)(F)F)c4)CC3)[nH]c2=O)cc1	434
